{
  "source": "PubChem BioAssay AID2060888",
  "about": "(Molecular Pharmacology Branch, DTP, NCI, 2025);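 further: viability read after seven days of drug exposure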;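 on viability, T/C: 100% = DMSO vehicle control viability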",
  "system": "695427-040-R-J1-PDC complex spheroid viability",
  "assay": "Anticancer human tumor 695427-040-R-J1-PDC patient-derived colon adenocarcinoma cell line growth inhibition [RAS]",
  "settings": "for IC50: curve of first compound; for viability, T/C: stronger effect = lower value",
  "procedure,_shortened": "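Tumour cells grown as complex spheroids with HUVEC endothelial cells and mesenchymal stem cells, treated with RAS pathway inhibitor combinations. Each agent spans half-log steps from near clinical Cmax, or 10 microM where Cmax is unknown.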",
  "key": {"[1]": {"settings": "second compound 0.00316 µM, first compound 0.0316 µM"}, "[2]": {"settings": "second compound 0.00316 µM, first compound 0.1 µM"}, "[3]": {"settings": "second compound 0.00316 µM, first compound 0.316 µM"}, "[4]": {"settings": "second compound 0.00316 µM, first compound 1 µM"}, "[5]": {"settings": "second compound 0.00316 µM, first compound 3.16 µM"}, "[6]": {"settings": "second compound 0.00316 µM, first compound 10 µM"}, "[7]": {"settings": "second compound 0.01 µM, first compound 0.0316 µM"}, "[8]": {"settings": "second compound 0.01 µM, first compound 0.1 µM"}, "[9]": {"settings": "second compound 0.01 µM, first compound 0.316 µM"}, "[10]": {"settings": "second compound 0.01 µM, first compound 1 µM"}, "[11]": {"settings": "second compound 0.01 µM, first compound 3.16 µM"}, "[12]": {"settings": "second compound 0.01 µM, first compound 10 µM"}, "[13]": {"settings": "second compound 0.0316 µM, first compound 0.0316 µM"}, "[14]": {"settings": "second compound 0.0316 µM, first compound 0.1 µM"}, "[15]": {"settings": "second compound 0.0316 µM, first compound 0.316 µM"}, "[16]": {"settings": "second compound 0.0316 µM, first compound 1 µM"}, "[17]": {"settings": "second compound 0.0316 µM, first compound 3.16 µM"}, "[18]": {"settings": "second compound 0.0316 µM, first compound 10 µM"}, "[19]": {"settings": "second compound 0.1 µM, first compound 0.0316 µM"}, "[20]": {"settings": "second compound 0.1 µM, first compound 0.1 µM"}, "[21]": {"settings": "second compound 0.1 µM, first compound 0.316 µM"}, "[22]": {"settings": "second compound 0.1 µM, first compound 1 µM"}, "[23]": {"settings": "second compound 0.1 µM, first compound 3.16 µM"}, "[24]": {"settings": "second compound 0.1 µM, first compound 10 µM"}, "[25]": {"settings": "second compound 0.316 µM, first compound 0.0316 µM"}, "[26]": {"settings": "second compound 0.316 µM, first compound 0.1 µM"}, "[27]": {"settings": "second compound 0.316 µM, first compound 0.316 µM"}, "[28]": {"settings": "second compound 0.316 µM, first compound 1 µM"}, "[29]": {"settings": "second compound 0.316 µM, first compound 3.16 µM"}, "[30]": {"settings": "second compound 0.316 µM, first compound 10 µM"}, "[31]": {"settings": "second compound 1 µM, first compound 0.0316 µM"}, "[32]": {"settings": "second compound 1 µM, first compound 0.1 µM"}, "[33]": {"settings": "second compound 1 µM, first compound 0.316 µM"}, "[34]": {"settings": "second compound 1 µM, first compound 1 µM"}, "[35]": {"settings": "second compound 1 µM, first compound 3.16 µM"}, "[36]": {"settings": "second compound 1 µM, first compound 10 µM"}},
  "data": [
    {"smiles": "CC(C)NCC(C(=O)N1CCN(c2ncnc3c2C(C)CC3O)CC1)c1ccc(Cl)cc1", "note": "(centres undefined) + C=CC(=O)N1CCN(c2nc(OCC3CCCN3C)nc3c(F)c(-c4nc(N)cc(C)c4C(F)(F)F)c(Cl)cc23)C(C)C1", "values": [
      {"measurement": "IC50", "setting": "second compound 0.00316 µM", "result": "> 10", "unit": "µM"},
      {"measurement": "IC50", "setting": "second compound 0.01 µM", "result": "> 10", "unit": "µM"},
      {"measurement": "IC50", "setting": "second compound 0.0316 µM", "result": "> 10", "unit": "µM"},
      {"measurement": "IC50", "setting": "second compound 0.1 µM", "result": "> 10", "unit": "µM"},
      {"measurement": "IC50", "setting": "second compound 0.316 µM", "result": "> 10", "unit": "µM"},
      {"measurement": "IC50", "setting": "second compound 1 µM", "result": "> 10", "unit": "µM"},
      {"measurement": "viability, T/C", "setting": "[1]", "result": 98, "unit": "%"},
      {"measurement": "viability, T/C", "setting": "[2]", "result": 95.2, "unit": "%"},
      {"measurement": "viability, T/C", "setting": "[3]", "result": 88.2, "unit": "%"},
      {"measurement": "viability, T/C", "setting": "[4]", "result": 84.7, "unit": "%"},
      {"measurement": "viability, T/C", "setting": "[5]", "result": 93.6, "unit": "%"},
      {"measurement": "viability, T/C", "setting": "[6]", "result": 108, "unit": "%"},
      {"measurement": "viability, T/C", "setting": "[7]", "result": 107, "unit": "%"},
      {"measurement": "viability, T/C", "setting": "[8]", "result": 102, "unit": "%"},
      {"measurement": "viability, T/C", "setting": "[9]", "result": 88.5, "unit": "%"},
      {"measurement": "viability, T/C", "setting": "[10]", "result": 93.3, "unit": "%"},
      {"measurement": "viability, T/C", "setting": "[11]", "result": 101, "unit": "%"},
      {"measurement": "viability, T/C", "setting": "[12]", "result": 111, "unit": "%"},
      {"measurement": "viability, T/C", "setting": "[13]", "result": 109, "unit": "%"},
      {"measurement": "viability, T/C", "setting": "[14]", "result": 91.1, "unit": "%"},
      {"measurement": "viability, T/C", "setting": "[15]", "result": 91.7, "unit": "%"},
      {"measurement": "viability, T/C", "setting": "[16]", "result": 87.8, "unit": "%"},
      {"measurement": "viability, T/C", "setting": "[17]", "result": 102, "unit": "%"},
      {"measurement": "viability, T/C", "setting": "[18]", "result": 106, "unit": "%"},
      {"measurement": "viability, T/C", "setting": "[19]", "result": 98.7, "unit": "%"},
      {"measurement": "viability, T/C", "setting": "[20]", "result": 91.5, "unit": "%"},
      {"measurement": "viability, T/C", "setting": "[21]", "result": 81.3, "unit": "%"},
      {"measurement": "viability, T/C", "setting": "[22]", "result": 83.6, "unit": "%"},
      {"measurement": "viability, T/C", "setting": "[23]", "result": 105, "unit": "%"},
      {"measurement": "viability, T/C", "setting": "[24]", "result": 111, "unit": "%"},
      {"measurement": "viability, T/C", "setting": "[25]", "result": 107, "unit": "%"},
      {"measurement": "viability, T/C", "setting": "[26]", "result": 88.6, "unit": "%"},
      {"measurement": "viability, T/C", "setting": "[27]", "result": 91.4, "unit": "%"},
      {"measurement": "viability, T/C", "setting": "[28]", "result": 95.2, "unit": "%"},
      {"measurement": "viability, T/C", "setting": "[29]", "result": 102, "unit": "%"},
      {"measurement": "viability, T/C", "setting": "[30]", "result": 107, "unit": "%"},
      {"measurement": "viability, T/C", "setting": "[31]", "result": 91.7, "unit": "%"},
      {"measurement": "viability, T/C", "setting": "[32]", "result": 94.6, "unit": "%"},
      {"measurement": "viability, T/C", "setting": "[33]", "result": 89, "unit": "%"},
      {"measurement": "viability, T/C", "setting": "[34]", "result": 79.7, "unit": "%"},
      {"measurement": "viability, T/C", "setting": "[35]", "result": 81.5, "unit": "%"},
      {"measurement": "viability, T/C", "setting": "[36]", "result": 89.5, "unit": "%"}
    ]},
    {"smiles": "CC(Nc1ccc2c(c1)OCCn1cc(N3C(=O)OCC3C(F)F)nc1-2)C(N)=O", "note": "(centres undefined) + C=CC(=O)N1CCN(c2nc(OCC3CCCN3C)nc3c(F)c(-c4nc(N)cc(C)c4C(F)(F)F)c(Cl)cc23)C(C)C1", "values": [
      {"measurement": "IC50", "setting": "second compound 0.00316 µM", "result": 1.47, "unit": "µM"},
      {"measurement": "IC50", "setting": "second compound 0.01 µM", "result": 0.838, "unit": "µM"},
      {"measurement": "IC50", "setting": "second compound 0.0316 µM", "result": 1.58, "unit": "µM"},
      {"measurement": "IC50", "setting": "second compound 0.1 µM", "result": 2.01, "unit": "µM"},
      {"measurement": "IC50", "setting": "second compound 0.316 µM", "result": 3.13, "unit": "µM"},
      {"measurement": "IC50", "setting": "second compound 1 µM", "result": 2.03, "unit": "µM"},
      {"measurement": "viability, T/C", "setting": "[1]", "result": 89.6, "unit": "%"},
      {"measurement": "viability, T/C", "setting": "[2]", "result": 68.5, "unit": "%"},
      {"measurement": "viability, T/C", "setting": "[3]", "result": 62.4, "unit": "%"},
      {"measurement": "viability, T/C", "setting": "[4]", "result": 54.2, "unit": "%"},
      {"measurement": "viability, T/C", "setting": "[5]", "result": 46.8, "unit": "%"},
      {"measurement": "viability, T/C", "setting": "[6]", "result": 36.2, "unit": "%"},
      {"measurement": "viability, T/C", "setting": "[7]", "result": 95.5, "unit": "%"},
      {"measurement": "viability, T/C", "setting": "[8]", "result": 75.5, "unit": "%"},
      {"measurement": "viability, T/C", "setting": "[9]", "result": 56.5, "unit": "%"},
      {"measurement": "viability, T/C", "setting": "[10]", "result": 50.2, "unit": "%"},
      {"measurement": "viability, T/C", "setting": "[11]", "result": 43.5, "unit": "%"},
      {"measurement": "viability, T/C", "setting": "[12]", "result": 41.1, "unit": "%"},
      {"measurement": "viability, T/C", "setting": "[13]", "result": 90.7, "unit": "%"},
      {"measurement": "viability, T/C", "setting": "[14]", "result": 76.7, "unit": "%"},
      {"measurement": "viability, T/C", "setting": "[15]", "result": 65.2, "unit": "%"},
      {"measurement": "viability, T/C", "setting": "[16]", "result": 51.2, "unit": "%"},
      {"measurement": "viability, T/C", "setting": "[17]", "result": 47, "unit": "%"},
      {"measurement": "viability, T/C", "setting": "[18]", "result": 38.4, "unit": "%"},
      {"measurement": "viability, T/C", "setting": "[19]", "result": 85.2, "unit": "%"},
      {"measurement": "viability, T/C", "setting": "[20]", "result": 71, "unit": "%"},
      {"measurement": "viability, T/C", "setting": "[21]", "result": 64.3, "unit": "%"},
      {"measurement": "viability, T/C", "setting": "[22]", "result": 50.4, "unit": "%"},
      {"measurement": "viability, T/C", "setting": "[23]", "result": 49.6, "unit": "%"},
      {"measurement": "viability, T/C", "setting": "[24]", "result": 43.3, "unit": "%"},
      {"measurement": "viability, T/C", "setting": "[25]", "result": 87.2, "unit": "%"},
      {"measurement": "viability, T/C", "setting": "[26]", "result": 73.2, "unit": "%"},
      {"measurement": "viability, T/C", "setting": "[27]", "result": 66.2, "unit": "%"},
      {"measurement": "viability, T/C", "setting": "[28]", "result": 55.9, "unit": "%"},
      {"measurement": "viability, T/C", "setting": "[29]", "result": 50.8, "unit": "%"},
      {"measurement": "viability, T/C", "setting": "[30]", "result": 44.4, "unit": "%"},
      {"measurement": "viability, T/C", "setting": "[31]", "result": 85.6, "unit": "%"},
      {"measurement": "viability, T/C", "setting": "[32]", "result": 71, "unit": "%"},
      {"measurement": "viability, T/C", "setting": "[33]", "result": 68, "unit": "%"},
      {"measurement": "viability, T/C", "setting": "[34]", "result": 52, "unit": "%"},
      {"measurement": "viability, T/C", "setting": "[35]", "result": 47.8, "unit": "%"},
      {"measurement": "viability, T/C", "setting": "[36]", "result": 40.8, "unit": "%"}
    ]}
  ]
}
